According to PMC4773034 (Journal of biomolecular screening, 2012):

Each molecule was assayed against EndA(H160G) (Streptococcus pneumoniae serotype 4, UniProt P0A3S3, H160G) (assay: PicoGreen nuclease assay). Conditions: 25 mM imidazole, 30 min reaction, top concentration 30 µM.
Assay type: biochemical

Row | SMILES | IC50 (stated in words)
1 | CC(C)c1ccc2c(c1)c(SC(C)(C)C)c(CC(C)(C)C(=O)[O-])n2Cc1ccc(Cl)cc1.[Na+] [MK-886] | nanomolar range
2 | NC(Cc1cc(O)c(O)cc1O)C(=O)O (racemic) [6-hydroxy-DL-DOPA] | nanomolar range
3 | O=c1c(O)c(-c2cc(O)c(O)c(O)c2)oc2cc(O)cc(O)c12 [Myricetin] | nanomolar range
